Reference: patent publication US7749730B2, “High throughput screening assay for the TRPM5 ion channel” (Redpoint Bio Corporation, priority 2005, dated 2010)

Assays:
Type in all cases: cell-based
TRPM5 [1] = biological target: T1, TRPM5 (Homo sapiens, UniProt Q9NZQ8); test: Membrane potential assay in transiently TRPM5-transfected HEK 293 cells (FLEXstation); parameters: the full length hTRPM5 was amplified by PCR using GC Melt; expressed in transfected cells; host or cells: HEK 293 (ATCC), transient transfection with Lipofectamine 2000; conditions: for TRPM5 response to agonist (relative fluorescence): within the first 30 seconds of agonist addition, FMP dye
T1 sequence (Q9NZQ8 1-1165): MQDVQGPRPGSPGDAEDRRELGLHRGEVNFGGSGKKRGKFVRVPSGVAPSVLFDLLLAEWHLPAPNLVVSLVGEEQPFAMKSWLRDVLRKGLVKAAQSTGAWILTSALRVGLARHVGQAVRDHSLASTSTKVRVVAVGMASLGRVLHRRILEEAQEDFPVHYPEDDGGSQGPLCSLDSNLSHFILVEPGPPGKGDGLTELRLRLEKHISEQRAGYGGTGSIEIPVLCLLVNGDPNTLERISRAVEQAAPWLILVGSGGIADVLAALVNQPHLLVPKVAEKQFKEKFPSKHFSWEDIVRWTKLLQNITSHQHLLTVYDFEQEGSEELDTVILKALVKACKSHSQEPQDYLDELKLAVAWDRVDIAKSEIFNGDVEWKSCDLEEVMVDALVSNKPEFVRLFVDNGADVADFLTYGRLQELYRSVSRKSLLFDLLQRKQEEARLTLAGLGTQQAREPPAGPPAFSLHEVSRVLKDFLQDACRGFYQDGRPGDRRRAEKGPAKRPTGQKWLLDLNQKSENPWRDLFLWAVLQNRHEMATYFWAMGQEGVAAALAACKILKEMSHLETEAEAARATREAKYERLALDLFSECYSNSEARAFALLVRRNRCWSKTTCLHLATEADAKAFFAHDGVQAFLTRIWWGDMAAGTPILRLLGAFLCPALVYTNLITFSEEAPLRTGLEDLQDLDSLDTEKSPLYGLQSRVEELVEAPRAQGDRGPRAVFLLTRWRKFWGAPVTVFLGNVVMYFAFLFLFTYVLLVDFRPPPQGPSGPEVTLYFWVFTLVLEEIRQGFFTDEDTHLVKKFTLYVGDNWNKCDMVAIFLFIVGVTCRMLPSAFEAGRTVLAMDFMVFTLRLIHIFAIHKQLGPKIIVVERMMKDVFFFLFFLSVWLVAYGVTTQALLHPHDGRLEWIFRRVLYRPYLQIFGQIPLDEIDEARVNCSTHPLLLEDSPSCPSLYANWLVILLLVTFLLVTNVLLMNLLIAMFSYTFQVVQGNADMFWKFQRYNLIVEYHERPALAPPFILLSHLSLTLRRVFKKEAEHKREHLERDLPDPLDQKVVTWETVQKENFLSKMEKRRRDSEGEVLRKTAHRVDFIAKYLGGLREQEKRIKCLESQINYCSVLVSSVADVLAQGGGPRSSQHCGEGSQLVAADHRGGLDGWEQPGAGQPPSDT
Description: As described in greater detail below, HEK 293 cells, transiently transfected with a plasmid bearing the human TRPM5 gene, were used to develop the high throughput screening assay. Indirect measurement of the changes in Na^+ ions within the HEK 293 cells were made using a FMP dye and stimulation of the cells using calcium activating agents.
1.0×10^6 HEK 293 cells (ATCC) were plated in each well of a 6-well tissue culture dish overnight. The following day, cells were transfected with 4 μg of a pcDNA3.2 vector containing TRPM5 cDNA and 8 μl of Lipofectamine 2000 (Invitrogen), according to the manufacturer's protocol, and incubated overnight. The following day, transfected cells were trypsinized and seeded into 96-well black, clear bottom, poly-D-lysine plates (Corning) at a density of 70,000 cells/well in a 100 μl volume and incubated in a 37° C./5% CO2 incubator overnight.
Once the expression of TRPM5 was confirmed in the HEK cells, 100 μl of the Blue or Red FMP dye (Molecular Devices) was added to each well of plates seeded with the transiently transfected cells. The plate was then incubated in a 37° C./5% CO2 incubator for 1 hour. The plate was read in a FLEXStation microplate reader (Molecular Devices) with an excitation of 530 nm and an emission of 565 nm. The fluorescence was monitored for 3 minutes upon exposure of the cells to a calcium activating agent (carbachol, thrombin peptide or ATP).

KCl response = test: KCl counterscreen (membrane potential dye, 20 mM KCl stimulus); conditions: TRPM5-expressing cells
Description: KCl activates a number of ion channels, but not TRPM5. Therefore, KCl can be used as a counterscreen to identify modulating compounds specific for TRPM5.
(§1) The ideal blocker would block TRPM5 but not other channels. The TRPM5 assay is conducted as described in Example 3, utilizing a membrane potential dye. A test compound is added, and the cells are then stimulated with ATP to trigger the channel, leading to a dye response. The process is shown schematically in FIG. 7. The KCl counterscreen is performed as described in Example 3, with identical cells, pretreated with the same compound, but the stimulus was 20 mM KCl, not ATP. KCl stimulated and unstimulated responses are used as controls. […] An additional specificity assay utilizes a Ca++ flux dye (Calcium 3 Dye, Part No. R8091) to determine whether or not the compound interferes with agonist-induced Ca++ flux response.

TRPM5 [2] = biological target: T1, TRPM5; test: TRPM5 membrane potential dye assay (FLIPR), cells stimulated with ATP; parameters: the full length hTRPM5 was amplified by PCR using GC Melt; expressed in transfected cells; conditions: ATP stimulus
Description: TRPM5 stably expressed in HEK cells was analyzed for its ability to respond to different concentrations of several GPCR agonists. The assay was performed on a FLIPR® using the excitation 510-545 nm and emission 565-625 nm filter sets. Assay plates containing stably expressing HEK cells were loaded with 1× Membrane Potential Assay Dye Red (Molecular Devices) for one hour in a 37° C. and 5% CO2 incubator. The plates were then removed from the incubator and equilibrated to room temperature for 15 minutes before reading on the FLIPR®. The plates were read on the FLIPR® for a total of 3 minutes. Baseline fluorescence was obtained on the FLIPR® for 10 seconds followed by addition of each agonist by the FLIPR® and read for an additional 2 minutes and 50 seconds. […] The values on the graph represent the difference in the maximum minus the minimum fluorescence upon agonist addition. Individual clones are represented by clone number, while the pool of clones represents the sum of all cells that were resistant to selection. In all cases, clone 1 gave the strongest response to all 3 agonists (ATP, carbachol, and thrombin peptide, FIGS. 5A-5C, respectively). Clone 5 and pooled clones generated a lower response in comparison to clone 1. However, both the clone 5 and pool responses were a minimum 3-fold higher than fluorescence in non-transfected cells.
Specificity of potential activating compounds may be identified using suboptimal concentrations of agents that increase intracellular calcium levels. In this type of assay, rather than using a high concentration of, for example carbachol, a reduced concentration is added to TRPM5-expressing cells with or without an additional test compound. Enhancers of TRPM5 activity are those test compounds that increase the fluorescent intensity in reduced carbachol treated cells, to the level seen in cells treated to a high dose.
A carbachol dose response curve was generated for the TRPM5 expressing cells so that the suboptimal concentration range could be determined. […]

[3] = tested on: agonist-induced Ca++ flux response; test: Ca++ flux assay (Calcium 3 Dye)
Description: as §1

Compound | TRPM5 response to agonist (relative fluorescence) (TRPM5 [1]) | effect on KCl response (KCl response) | inhibition of the TRPM5 response (TRPM5 [2]) | effect on Ca++ flux response [3] | fluorescence over background (TRPM5 [1]; versus mock treated cells)
Nc1ncnc2c1ncn2[C@@H]1O[C@H](COP(=O)(O)OP(=O)(O)OP(=O)(O)O)[C@@H](O)[C@H]1O [ATP, adenosine triphosphate] | strong spike in relative fluorescence |  |  |  | 
NC1C(=O)/C(=C\c2cc([N+](=O)[O-])cc([N+](=O)[O-])c2O)SC1=S (centres unmarked) [Compound F001344,A3] |  | inhibits TRPM5, but also the KCl responses | inhibits TRPM5 |  | 
O=c1[nH]c(SCc2ccccc2)nc(O)c1C(c1ccccc1)c1ccccc1 [Compound F0013488,C13] |  |  | inhibits TRPM5 | activates the Ca++ flux response | 
C[N+](C)(C)CCOC(N)=O [carbachol] | strong spike in relative fluorescence |  |  |  | 
C=CCOc1ccc(/C=N/NC(=O)CSCc2cccc(Br)c2)cc1OC [compound 1] |  | does not alter KCl or Ca++ responses | dose responsive inhibition of the TRPM5 response | does not alter KCl or Ca++ responses | 
thrombin | strong spike in relative fluorescence |  |  |  | greater than 4 fold
